Measured values published in US12385902B2, “Methods for generating and screening compartmentalised peptide libraries” (UNIVERSITY OF SOUTHAMPTON, priority 2017, dated 2025).
Entries after “also recorded” stand apart in the source; their conditions may differ.

Columns and labels:
[1] = system: Alzheimer's protein Δβ42 fused to GFP; conditions: Mathis et al., Nature Biomedical Engineering 2017; cited from earlier work
AB42-GFP fusion = biological target: T1, AB42-GFP fusion (Homo sapiens, UniProt P05067); experiment: In vitro expression in microfluidic droplets of AB42-GFP fusion with cyclic peptide; aggregation assay read by FACS green fluorescence; type: biochemical; conditions: double emulsion droplets, IVTT 2 h at 37° C., relative to buffer alone, IVTT alone and cyclo-CA5
T1 construct: In vitro expression in microfluidic droplets of AB42-GFP fusion with cyclo-TAFDR; made in house; host or cells: cell-free in vitro transcription/translation (IVTT)
Procedure: FIG. 17. In vitro expression in microfluidic droplets of AB42-GFP fusion with cyclo-TAFDR (SEQ ID NO: 7) (Matis et al.). Vector CSpDuetNpuHisAB42-GFP was utilised for the cloning of TAFDR (SEQ ID NO: 7) into MCS1. Thereafter, plasmid DNA was encapsulated into agarose droplets alongside isothermal DNA amplification reaction components and incubated overnight. Agarose beads were prepped as previously stated and re-encapsulated together with IVTT. A final emulsification step was performed to yield FACS compatible double emulsions. A negative control vector in the presence of CA5 was likewise constructed to verify cyclo-TAFDR (SEQ ID NO: 7) AB42-GFP aggregation inhibition.
When GFP is produced as an aggregating fusion, its fluorescence is lost; however, when the aggregation is disrupted by TAFDR (SEQ ID NO: 7), the GFP can fluoresce. See Mathis et al., Nature Biomedical Engineering volume 1, pages 838-852 (2017).
We have used the Δβ42 aggregation assay to assess the performance of the system of the invention. This assay has previously been combined with a SICLOPPS screen (Mathis et al.), so cyclo-TAFDR (SEQ ID NO: 7) is a validated positive cyclic peptide control.
Vector CSpDuetNpuHisAB42-GFP was utilised for the cloning of TAFDR (SEQ ID NO: 7) into MCS1. […]

T1 sequence (P05067 672-713 limits assumed): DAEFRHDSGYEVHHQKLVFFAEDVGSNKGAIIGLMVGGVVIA
Sequence of Alzheimer's protein Δβ42 fused to GFP (P05067 672-713 limits assumed, stated change not applied): as the sequence (P05067 672-713 limits assumed) above

## cyclo-TAFDR (cyclised)
[1]
  inhibition of aggregation of Aβ42 fused to GFP: inhibit aggregation
AB42-GFP fusion
  green fluorescence (GFP) upon cyclic peptide expression, associated with disruption of Aβ aggregation: positive shift in green fluorescence; also recorded: significant increase in fluorescence
